Reference: US10287530B2, “Surfactants based on monounsaturated fatty alcohol derivatives” (priority 2013, dated 2019)
Read-outs that look alike come from different tables or passages of the source.

Experiments:
[1] = Interfacial tension (IFT) against light mineral oil, synergy study with cationic surfactant; format: physicochemical; conditions: for IFT at 0.1% actives/mineral oil (blend): 1:1 molar blend of the anionic with Ammonyx Cetac 30, 0.1% actives, light mineral oil; for Calculated IFT (no synergy): expected IFT of the 1:1 molar blend with Ammonyx Cetac 30 by ideal mixing; for Synergy?: measured versus expected IFT of the 1:1 molar blend with Ammonyx Cetac 30; for IFT at 0.1% actives (single component): 0.1 wt. % active against light mineral oil, ambient temperature
Description: The surfactant blends tested are prepared at a 1:1 molar ratio without any pH adjustment. Dilutions are made using deionized water to the desired actives level. Actives amounts are wt. % unless indicated otherwise. Appearances are reported at ambient temperature for samples prepared within the last 24 h.
Interfacial tension (IFT) of all the individual components and their blends is measured at 0.1 wt. % active against light mineral oil at ambient temperature using a Kruss DSA-20 pendent drop tensiometer. The drop is blown out at 600 μL/min., and a video is recorded for 100 s. The video frames taken during the last 15 s are analyzed and used for the IFT calculation.
For blends having an IFT less than 0.5 mN/m, the IFT is determined using a spinning drop tensiometer (University of Texas 500) at 25° C. Oil density=0.877 g/cm^3 and surfactant density=0.997 g/cm^3 are used for the IFT calculation.
The expected IFT for a blend is calculated based on ideal mixing (non-synergistic) using the active component in each blend. The equation used is given as: Expected IFT=X*IFTa+(1−X)*IFTb where X is the actives % of component A, IFTa is the IFT of component A, and IFTb is the IFT of component B. If the measured IFT for a blend is less than the expected IFT, then the blend is synergistic. If the measured IFT for a blend is higher than the expected IFT, the system is antagonistic.

[2] = tested on: zein, yellow corn (maize) protein
Description: The zein test is based on solubilization by surfactants of a yellow corn (maize) protein that is normally insoluble in water unless it is denatured. The test gravimetrically determines the amount of zein dissolved by a surfactant solution. The solubility of zein in surfactant solutions correlates well with skin irritation or roughness caused by the surfactant. […] A higher zein number corresponds to a greater degree of irritation.
A 1% actives solution of each test surfactant (120 mL) is prepared. The pH of each solution is adjusted to about 7.0 with dilute aq. sulfuric acid or dilute aq. sodium hydroxide. The surfactant solution is warmed to 45° C. Zein powder (1.50 g) is added to each of three jars. Surfactant (25.0 g of 1% actives solution) is added to each jar, and to one empty jar to be used as a blank. The solutions are mixed using magnetic stirring on a temperature-controlled hotplate at 45° C. for 60 min. Each mixture is then centrifuged (2500 rpm, 15 min.), and undissolved zein powder is isolated by vacuum filtration. The residue is washed with deionized water and dried (55° C., 24 h) to constant weight. The amount of undissolved zein protein is found gravimetrically, and the results from three runs are averaged to give the % of solubilized zein and zein number.

Substance | IFT at 0.1% actives/mineral oil (blend) [1] [mN/m] | Calculated IFT (no synergy) [1] [mN/m] | Synergy? [1] | IFT at 0.1% actives (single component) [1] [mN/m] | % solubilized zein [2] [%] | zein number [2] | % solubilized zein ([2]; 1% actives solution, pH about 7.0, 45° C., 60 min, average of three runs) [%] | zein number ([2]; relative to 1% actives Stepanol WA-Extra PCK (SLS) control = 100, higher = more irritating, average of three runs)
1-Undecanol, 1EO Ether Sulfate, Sodium Salt [Sat. C11 alcohol 1EO Na sulfate] | 0.23 | 6.44 | very high | 12.52 | 33.7 | 68.0 |  | 
Undecylenic Alcohol, 1EO Ether Sulfate, Sodium Salt [Unsat. C11 alcohol 1EO Na sulfate] | 0.13 | 3.27 | very high | 6.18 |  |  | 8.3 | 16.7
